{"source": "PubChem BioAssay AID250", "about": "(DTP/NCI, 2004)", "system": "BDF1 mice, L1210 leukemia sc, survival T/C", "assay": "NCI In Vivo Anticancer Drug Screen. Data for tumor model L1210 Leukemia (subcutaneous) in B6D2F1 (BDF1) mice", "conditions": "endpoint: median survival time, higher = longer survival", "how_it_was_run": "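Expressed as T/C: measurement in compound-treated, tumor-bearing mice relative to vehicle-treated control mice, based on survival or tumor size.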", "note": "Several values for one entry are separate records, joined by “and”; a condition that tells them apart may be missing. Equal entries are not always repeated. Inconclusive results and toxic doses are left out."}
{"smiles": "CC(CN1CC(=O)NC(=O)C1)N1CC(=O)NC(=O)C1", "note": "(stereo unspecified)", "values": [{"measurement": "T/C", "setting": "dose: 3.12 mg/kg/injection, schedule: Q03HX024 (ip), vehicle: other", "value": "115 % of control"}, {"measurement": "T/C", "setting": "dose: 3.12 mg/kg/injection, schedule: Q03HX024 (ip), vehicle: steriod suspending solution", "value": "111 % of control"}, {"measurement": "T/C", "setting": "dose: 6.25 mg/kg/injection, schedule: Q03HX024 (ip), vehicle: other", "value": "156 % of control"}, {"measurement": "T/C", "setting": "dose: 6.25 mg/kg/injection, schedule: Q03HX024 (ip), vehicle: steriod suspending solution", "value": "155 % of control"}, {"measurement": "T/C", "setting": "dose: 8.4 mg/kg/injection, schedule: Q03HX024 (sc), vehicle: Klucel (hydroxypropylcellulose) (HPC)", "value": "150 % of control"}, {"measurement": "T/C", "setting": "dose: 10.0 mg/kg/injection, schedule: Q03HX024 (sc), vehicle: Klucel (hydroxypropylcellulose) (HPC)", "value": "184 % of control and 185 % of control"}, {"measurement": "T/C", "setting": "dose: 12.5 mg/kg/injection, schedule: Q01DX009 (sc), vehicle: steriod suspending solution", "value": "105 % of control"}, {"measurement": "T/C", "setting": "dose: 12.5 mg/kg/injection, schedule: Q03HX024 (ip), vehicle: other", "value": "191 % of control"}, {"measurement": "T/C", "setting": "dose: 12.5 mg/kg/injection, schedule: Q03HX024 (ip), vehicle: steriod suspending solution", "value": "161 % of control"}, {"measurement": "T/C", "setting": "dose: 14.0 mg/kg/injection, schedule: Q03HX024 (sc), vehicle: Klucel (hydroxypropylcellulose) (HPC)", "value": "180 % of control"}, {"measurement": "T/C", "setting": "dose: 16.0 mg/kg/injection, schedule: Q01DX009 (ip), vehicle: Klucel (hydroxypropylcellulose) (HPC)", "value": "109 % of control and 124 % of control"}, {"measurement": "T/C", "setting": "dose: 16.0 mg/kg/injection, schedule: Q01DX009 (ip), vehicle: other", "value": "119 % of control"}, {"measurement": "T/C", "setting": "dose: 20.0 mg/kg/injection, schedule: Q03HX024 (sc), vehicle: Klucel (hydroxypropylcellulose) (HPC)", "value": "194 % of control and 195 % of control"}, {"measurement": "T/C", "setting": "dose: 23.0 mg/kg/injection, schedule: Q03HX024 (sc), vehicle: Klucel (hydroxypropylcellulose) (HPC)", "value": "200 % of control"}, {"measurement": "T/C", "setting": "dose: 25.0 mg/kg/injection, schedule: Q01DX009 (sc), vehicle: steriod suspending solution", "value": "120 % of control"}, {"measurement": "T/C", "setting": "dose: 25.0 mg/kg/injection, schedule: Q03HX024 (ip), vehicle: other", "value": "160 % of control"}, {"measurement": "T/C", "setting": "dose: 25.0 mg/kg/injection, schedule: Q03HX024 (ip), vehicle: steriod suspending solution", "value": "155 % of control"}, {"measurement": "T/C", "setting": "dose: 39.0 mg/kg/injection, schedule: Q03HX024 (sc), vehicle: Klucel (hydroxypropylcellulose) (HPC)", "value": "205 % of control"}, {"measurement": "T/C", "setting": "dose: 40.0 mg/kg/injection, schedule: Q03HX024 (sc), vehicle: Klucel (hydroxypropylcellulose) (HPC)", "value": "199 % of control and 200 % of control"}, {"measurement": "T/C", "setting": "dose: 50.0 mg/kg/injection, schedule: Q01DX009 (ip), vehicle: steriod suspending solution", "value": "150 % of control"}, {"measurement": "T/C", "setting": "dose: 50.0 mg/kg/injection, schedule: Q01DX009 (sc), vehicle: steriod suspending solution", "value": "155 % of control"}, {"measurement": "T/C", "setting": "dose: 50.0 mg/kg/injection, schedule: Q04DX003 (sc), vehicle: Klucel (hydroxypropylcellulose) (HPC)", "value": "110 % of control and 112 % of control"}, {"measurement": "T/C", "setting": "dose: 64.0 mg/kg/injection, schedule: Q01DX009 (ip), vehicle: Klucel (hydroxypropylcellulose) (HPC)", "value": "154 % of control"}, {"measurement": "T/C", "setting": "dose: 65.0 mg/kg/injection, schedule: Q01DX009 (sc), vehicle: Klucel (hydroxypropylcellulose) (HPC)", "value": "170 % of control"}, {"measurement": "T/C", "setting": "dose: 65.0 mg/kg/injection, schedule: Q03HX024 (sc), vehicle: Klucel (hydroxypropylcellulose) (HPC)", "value": "205 % of control"}, {"measurement": "T/C", "setting": "dose: 80.0 mg/kg/injection, schedule: Q03HX024 (sc), vehicle: Klucel (hydroxypropylcellulose) (HPC)", "value": "118 % of control and 120 % of control"}, {"measurement": "T/C", "setting": "dose: 100.0 mg/kg/injection, schedule: Q01DX009 (ip), vehicle: steriod suspending solution", "value": "110 % of control"}, {"measurement": "T/C", "setting": "dose: 100.0 mg/kg/injection, schedule: Q01DX009 (sc), vehicle: steriod suspending solution", "value": "150 % of control and 175 % of control"}, {"measurement": "T/C", "setting": "dose: 100.0 mg/kg/injection, schedule: Q04DX003 (ip), vehicle: other", "value": "117 % of control"}, {"measurement": "T/C", "setting": "dose: 100.0 mg/kg/injection, schedule: Q04DX003 (ip), vehicle: steriod suspending solution", "value": "120 % of control"}, {"measurement": "T/C", "setting": "dose: 100.0 mg/kg/injection, schedule: Q04DX003 (sc), vehicle: steriod suspending solution", "value": "100 % of control and 120 % of control"}, {"measurement": "T/C", "setting": "dose: 108.0 mg/kg/injection, schedule: Q01DX009 (sc), vehicle: Klucel (hydroxypropylcellulose) (HPC)", "value": "160 % of control"}, {"measurement": "T/C", "setting": "dose: 108.0 mg/kg/injection, schedule: Q04DX003 (sc), vehicle: Klucel (hydroxypropylcellulose) (HPC)", "value": "118 % of control and 122 % of control"}, {"measurement": "T/C", "setting": "dose: 200.0 mg/kg/injection, schedule: Q01DX009 (ip), vehicle: steriod suspending solution", "value": "90 % of control"}, {"measurement": "T/C", "setting": "dose: 200.0 mg/kg/injection, schedule: Q01DX009 (sc), vehicle: steriod suspending solution", "value": "90 % of control"}, {"measurement": "T/C", "setting": "dose: 200.0 mg/kg/injection, schedule: Q04DX003 (ip), vehicle: Klucel (hydroxypropylcellulose) (HPC)", "value": "150 % of control"}, {"measurement": "T/C", "setting": "dose: 200.0 mg/kg/injection, schedule: Q04DX003 (ip), vehicle: other", "value": "175 % of control"}, {"measurement": "T/C", "setting": "dose: 200.0 mg/kg/injection, schedule: Q04DX003 (ip), vehicle: steriod suspending solution", "value": "150 % of control and 175 % of control"}, {"measurement": "T/C", "setting": "dose: 200.0 mg/kg/injection, schedule: Q04DX003 (sc), vehicle: steriod suspending solution", "value": "100 % of control"}, {"measurement": "T/C", "setting": "dose: 256.0 mg/kg/injection, schedule: Q01DX009 (ip), vehicle: Klucel (hydroxypropylcellulose) (HPC)", "value": "116 % of control and 121 % of control"}, {"measurement": "T/C", "setting": "dose: 256.0 mg/kg/injection, schedule: Q01DX009 (ip), vehicle: other", "value": "105 % of control"}, {"measurement": "T/C", "setting": "dose: 300.0 mg/kg/injection, schedule: Q01DX009 (sc), vehicle: Klucel (hydroxypropylcellulose) (HPC)", "value": "120 % of control"}, {"measurement": "T/C", "setting": "dose: 300.0 mg/kg/injection, schedule: Q04DX003 (sc), vehicle: Klucel (hydroxypropylcellulose) (HPC)", "value": "160 % of control and 169 % of control and 177 % of control"}, {"measurement": "T/C", "setting": "dose: 400.0 mg/kg/injection, schedule: Q04DX003 (ip), vehicle: Klucel (hydroxypropylcellulose) (HPC)", "value": "206 % of control"}, {"measurement": "T/C", "setting": "dose: 400.0 mg/kg/injection, schedule: Q04DX003 (ip), vehicle: other", "value": "156 % of control and 207 % of control"}, {"measurement": "T/C", "setting": "dose: 400.0 mg/kg/injection, schedule: Q04DX003 (ip), vehicle: steriod suspending solution", "value": "155 % of control and 185 % of control and 205 % of control"}, {"measurement": "T/C", "setting": "dose: 500.0 mg/kg/injection, schedule: Q01DX009 (sc), vehicle: Klucel (hydroxypropylcellulose) (HPC)", "value": "100 % of control"}, {"measurement": "T/C", "setting": "dose: 512.0 mg/kg/injection, schedule: Q01DX009 (ip), vehicle: Klucel (hydroxypropylcellulose) (HPC)", "value": "107 % of control"}, {"measurement": "T/C", "setting": "dose: 800.0 mg/kg/injection, schedule: Q04DX003 (ip), vehicle: Klucel (hydroxypropylcellulose) (HPC)", "value": "112 % of control"}, {"measurement": "T/C", "setting": "dose: 800.0 mg/kg/injection, schedule: Q04DX003 (ip), vehicle: other", "value": "111 % of control and 118 % of control"}, {"measurement": "T/C", "setting": "dose: 800.0 mg/kg/injection, schedule: Q04DX003 (ip), vehicle: steriod suspending solution", "value": "100 % of control and 110 % of control and 120 % of control"}, {"measurement": "T/C", "setting": "dose: 800.0 mg/kg/injection, schedule: Q04DX003 (sc), vehicle: steriod suspending solution", "value": "110 % of control and 120 % of control"}, {"measurement": "T/C", "setting": "dose: 833.0 mg/kg/injection, schedule: Q04DX003 (oral), vehicle: Klucel (hydroxypropylcellulose) (HPC)", "value": "161 % of control and 168 % of control"}, {"measurement": "T/C", "setting": "dose: 833.0 mg/kg/injection, schedule: Q04DX003 (sc), vehicle: Klucel (hydroxypropylcellulose) (HPC)", "value": "107 % of control and 111 % of control"}, {"measurement": "T/C", "setting": "dose: 840.0 mg/kg/injection, schedule: Q04DX003 (oral), vehicle: Klucel (hydroxypropylcellulose) (HPC)", "value": "186 % of control and 188 % of control"}, {"measurement": "T/C", "setting": "dose: 1388.0 mg/kg/injection, schedule: Q04DX003 (sc), vehicle: Klucel (hydroxypropylcellulose) (HPC)", "value": "100 % of control"}]}
